≈ marks a conversion by molar mass, not a printed value.
How the values were obtained:
E. coli efflux del. = assay: microbe, parasite or virus in culture; format: cell-based, Escherichia coli; conditions: broth microdilution, 16–24 h at 37 °C; unit inferred
Experimental: (§1) The in vitro antibacterial activity of the synthesized benzamides 7–12 and 31–37 was evaluated against a panel of eight different bacterial strains. The Gram-positive bacterial strains comprised S. aureus, S. pneumoniae and E. faecalis, and the panel of Gram-negative bacteria consisted of E. coli, K. pneumoniae, A. baumannii and P. aeruginosa.
(§2) The selected bacterial strains were Gram-negative Escherichia coli (ATCC 25922) and Gram-positive Staphylococcus aureus (ATCC 29213) and S. Pneumoniae (ATCC 49619). The Saccharomyces cerevisiae ATCC 7752 strain was tested as a eukaryotic model organism. Synthesized compounds were prepared as 10 mM DMSO solutions and tested in a final concentration range of 100–0.2 µM [39].
(§3) Broth microdilution testing was performed according to CLSI (Clinical Laboratory Standards Institute) guidelines. The MIC (minimal inhibitory concentration) value was defined as the last tested concentration of a compound at which there is no visible growth of bacteria. Inoculums for each microorganism were prepared using the direct colony suspension method, where broth solutions that achieved turbidity equivalent to 0.5 McFarland standards were additionally diluted 100× with cation-adjusted MH media (Becton Dickinson). All test plates were incubated for 16–24 h at 37 °C.

S. aureus ATCC 29213 = assay: Antibacterial activity in vitro, broth microdilution MIC; format: cell-based, Staphylococcus aureus; conditions: broth microdilution, 16–24 h at 37 °C; unit inferred
Experimental: as §1, §2, §3

[1] = Ferric reducing/antioxidant power (FRAP assay); set-up: FRAP: unit not given here
Experimental: (§4) The synthesized benzazole acrylonitrile derivatives were screened for their antioxidative potency by using in vitro assays, namely DPPH and ABTS as free radical scavenging assays and FRAP as a ferric reducing/antioxidant power assay.
The antioxidant activity of a substance is directly related to its reducing power.
The FRAP method was carried out according to previously described procedures with some modifications to make it compatible with an assay on a 96-well microplate. All results were expressed as Fe^2+ equivalents (Fe^2+ µmol). Ferrous sulphate (FeSO4 × 7H2O) was used to develop a standard curve of 20–2000 µmol/l for the FRAP test.

[2] = tested on: HEK 293 (human embryonic kidney); assay: Antiproliferative activity in vitro, MTT assay, 72 h, non-cancerous cell line; format: cell-based; conditions: HEK293, 72 h incubation, '-' with footnote a = did not show biological activity due to precipitation
Experimental: (§5) The experiments were carried out on four human cell lines which are derived from three cancer types: H460 (lung carcinoma), HCT 116 (colorectal carcinoma), MCF-7 (human breast cancer) and the non-cancerous cell line HEK 293 (human embryonic kidney).
(§6) The results are compared with the known antiproliferative agents doxorubicin and etoposide. […] Therefore, it is not clear whether the observed antiproliferative activity is due to the biological activity of the compounds or to precipitation.
(§7) The experiments were performed on four human cell lines, including HCT 116 (colon carcinoma), H 460 (lung carcinoma), MCF-7 (breast carcinoma) and HEK 293 (human embryonic kidney cells), in line with previously published experimental procedures. Briefly, the cells were grown in DMEM medium with the addition of 10% fetal bovine serum (FBS), 2 mM of L-glutamine, 100 U/mL of penicillin and 100 µg/mL of streptomycin and cultured as monolayers at 37 °C in a humidified atmosphere with 5% CO2. Cells were seeded at 2 × 10^3 cells/well in standard 96-well microtiter plates and left to attach for 24 h. The next day, a test compound was added in five serial 10-fold dilutions. The rate of cell growth was evaluated after 72 h of incubation with MTT assays. […] Each test was performed in quadruplicate in at least two individual experiments.

A. baumannii ATCC 17978 = assay: Antibacterial activity in vitro, broth microdilution MIC; format: cell-based; conditions: 16–24 h at 37 °C, unit inferred
Experimental: as §1, §2, §3

E. faecalis ATCC 29212 = assay: as above; format: cell-based; conditions: for MIC E. faecalis ATCC 29212: broth microdilution, 16–24 h at 37 °C, unit inferred
Experimental: as §1, §2, §3

P. aeruginosa ATCC 27853 = assay: as above; format: cell-based; conditions: 16–24 h at 37 °C, unit inferred
Experimental: as §1, §2, §3

E. coli ATCC 25922 = assay: as above; format: cell-based, Escherichia coli; conditions: 16–24 h at 37 °C, unit inferred
Experimental: as §1, §2, §3

[3] = DPPH free radical scavenging assay; conditions: compared to the standard BHT
From the text: as §4
The well-known antioxidant butylated hydroxytoluene (BHT) was used as a standard for comparing activity during testing. The DPPH assay is a standard commonly used test for the in vitro assessment of the antioxidant capacity of novel compounds by using their ability to scavenge the stable radical 1,1-diphenyl-picrylhydrazyl. […] Another test used to evaluate the antioxidative capacity of novel compounds was the ABTS test, by which their activity was evaluated by scavenging the stable radical 3-ethylbenzthiazoline-6-sulphonic acid.
Determination of the reducing activity of the stable radical 1,1-diphenyl-picrylhydrazyl (DPPH):
The reducing activity of the investigated systems was measured by the DPPH method according to previously described procedures with modifications to ensure their use on a 96-well microplate. Briefly, equal volumes of various concentrations of the tested molecules (dissolved in DMSO) were added to a solution of DPPH (final concentration of 50 µM in absolute ethanol). Ethanol and DMSO were used as control solutions in line with earlier reports. The radical scavenging activity was calculated using the following formula:[(A517 control − A517 compound)/A517 control] × 100.
The IC50 values were calculated from dose–response curves using nonlinear regression analysis with the GraphPad Prism 8 Ink. program. All measurements were carried out in triplicate.

[4] = tested on: HCT 116 (colorectal carcinoma); assay: Antiproliferative activity in vitro, MTT assay, 72 h; format: cell-based; conditions: Homo sapiens, 72 h incubation, '-' with footnote a = did not show biological activity due to precipitation
Experimental: as §5, §6, §7

H460 (lung carcinoma) = assay: as above; format: cell-based; conditions: Homo sapiens, NCI-H460, 72 h incubation
Experimental: as §5, §6, §7

[5] = tested on: MCF-7 (human breast cancer); assay: as above; format: cell-based; conditions: MCF7, 72 h incubation
Experimental: as §5, §6, §7

| SMILES | MIC E. coli efflux del. (E. coli efflux del.) [µM] | MIC S. aureus ATCC 29213 (S. aureus ATCC 29213) [µM] | FRAP ([1]; Fe2+ equivalents, triplicate) | FRAP ferric reducing/antioxidant power, in words ([1]; compared to the standard BHT) | IC50 [2] [nM] | MIC A. baumannii ATCC 17978 (A. baumannii ATCC 17978) [µM] | MIC (E. faecalis ATCC 29212; Enterococcus faecalis, ATCC29212, read-out: MIC E. faecalis) [µM] | Selectivity of antibacterial activity, in words (E. faecalis ATCC 29212; against the Gram-positive strain E. faecalis) | MIC E. faecalis ATCC 29212 (E. faecalis ATCC 29212) [µM] | MIC P. aeruginosa ATCC 27853 (P. aeruginosa ATCC 27853) [µM] | MIC E. coli ATCC 25922 (E. coli ATCC 25922) [µM] | DPPH free radical scavenging activity, in words [3] | IC50 [4] [nM] | IC50 (H460 (lung carcinoma)) [nM] | IC50 [5] [nM] |
| --- | --- | --- | --- | --- | --- | --- | --- | --- | --- | --- | --- | --- | --- | --- | --- |
| COc1c(O)cc(C(=O)Nc2nc3ccccc3[nH]2)cc1O [Compound 8, N-(1H-benzo[d]imidazol-2-yl)-3,5-dihydroxy-4-methoxybenzamide] | > 64 | > 64 | 2461.93 ± 21.42 | excellent in vitro antioxidant activity | 49400 ± 3300 | > 64 | 8 (≈ 2.39 µg/mL) | selective antibacterial activity | 8 (≈ 2.39 µg/mL) | > 64 | > 64 | significantly improved | > 100000 | 91800 ± 1000 | 52900 ± 16000 |
| CNC(C)C1CCC(N)C(OC2C(N)CC(N)C(OC3OCC(C)(O)C(NC)C3O)C2O)O1 (stereo not shown) [Gentamicin, gentamicin, reference compound] | 1 (≈ 0.478 µg/mL) | 0.25 (≈ 0.119 µg/mL) | – | – | – | 4 (≈ 1.91 µg/mL) | – | – | 16 (≈ 7.64 µg/mL) | 2 (≈ 0.955 µg/mL) | 0.5 (≈ 0.239 µg/mL) | – | – | – | – |
| CC(C)(O/N=C(\C(=O)N[C@@H]1C(=O)N2C(C(=O)[O-])=C(C[n+]3ccccc3)CS[C@H]12)c1csc(N)n1)C(=O)O [Ceftazidime, ceftazidime, reference compound] | – | 4 (≈ 2.19 µg/mL) | – | – | – | 4 (≈ 2.19 µg/mL) | – | – | > 64 | 2 (≈ 1.09 µg/mL) | – | – | – | – | – |
| COc1cc([C@@H]2c3cc4c(cc3[C@@H](O[C@@H]3O[C@@H]5CO[C@@H](C)O[C@H]5[C@H](O)[C@H]3O)[C@H]3COC(=O)[C@H]23)OCO4)cc(OC)c1O [Etoposide, etoposide, reference compound] | – | – | – | – | 650 ± 20 | – | – | – | – | – | – | – | 2200 ± 400 | 2200 ± 400 | 600 ± 100 |
| CN(C)[C@@H]1C(O)=C(C(N)=O)C(=O)[C@@]2(O)C(O)=C3C(=O)c4c(O)cccc4[C@@](C)(O)[C@H]3C[C@@H]12 [Tetracycline, tetracycline, reference compound] | 32 (≈ 14.2 µg/mL) | – | – | – | – | – | – | – | – | – | – | – | – | – | – |
| CC[C@H]1OC(=O)[C@H](C)[C@@H](O[C@H]2C[C@@](C)(OC)[C@@H](O)[C@H](C)O2)[C@H](C)[C@@H](O[C@@H]2O[C@H](C)C[C@H](N(C)C)[C@H]2O)[C@](C)(O)C[C@@H](C)CN(C)[C@H](C)[C@@H](O)[C@]1(C)O [Azithromycin, azithromycin, reference compound] | 0.5 (≈ 0.374 µg/mL) | 1 (≈ 0.749 µg/mL) | – | – | – | 8 (≈ 5.99 µg/mL) | – | – | 8 (≈ 5.99 µg/mL) | 32 (≈ 24 µg/mL) | 4 (≈ 3 µg/mL) | – | – | – | – |
| CC1(C)S[C@@H]2[C@H](NC(=O)[C@H](N)c3ccccc3)C(=O)N2[C@H]1C(=O)O [Ampicillin, ampicillin, reference compound] | – | 0.5 (≈ 0.175 µg/mL) | – | – | – | 32 (≈ 11.2 µg/mL) | – | – | 1 (≈ 0.349 µg/mL) | > 64 | – | – | – | – | – |

Source: publication PMC11085308, “Design, Synthesis and Biological Activity of Novel Methoxy- and Hydroxy-Substituted N-Benzimidazole-Derived Carboxamides” (Molecules, 2024)
